Results from patent US11130960B2, “Methods for conferring or enhancing herbicide resistance on plants and/or alga with protoporphyrinogen oxidase variants” (FARM HANNONG CO., LTD., priority 2014, dated 2021).

Columns and labels:
Assay in all cases: Growth inhibition of BT3(ΔPPO) E. coli transformed with 98% homology variant, LB solid medium
Conditions in all cases: 1% agar LB solid medium, 37° C., 14~16 hours, light
CyPPO2 variant = format: cell-based, Oscillatoria nigro-viridis PCC 7112
From the text: (§1) To investigate amino acid sequence homology range of CyPPO2, CyPPO4 and CyPPO8 which maintain herbicide resistance, a part of the amino acid sequence of CyPPO2, CyPPO4 or CyPPO8 protein was replaced by a part of the amino acid sequence of NtPPO (tobacco-derived PPO gene). As a result, the amino acid sequence of the resulting CyPPO2 variant is represented by SEQ ID NO: 12, and its nucleotide sequence thereof is represented by SEQ ID NO: 13. […] Further, the amino acid sequence of the CyPPO4 variant is represented by SEQ ID NO: 14, and its nucleotide sequence thereof is represented by SEQ ID NO: 15. […] Further, the amino acid sequence of the CyPPO8 variant is represented by SEQ ID NO: 16, and its nucleotide sequence thereof is represented by SEQ ID NO: 17.
(§2) Herbicide resistance of the amino acid sequence variant of CyPPO2, the amino acid sequence variant of CyPPO4, and the amino acid sequence variant of CyPPO8 was investigated in PPO-deficient BT3 E. coli [BT3(ΔPPO)], and a specific experimental method is similar to that of Example 3. In the same manner as in Example 3, as a negative control, the wild-type PPO (wild-type AtPPO1) of Arabidopsis thaliana was employed as a reference for herbicide-sensitivity. As a positive control, the mutant AtPPO1 which was prepared by amino acid replacement of Y426M and S305L in the wild-type amino acid sequence was employed as a reference for herbicide-resistance.
(§3) An autoclave was used under conditions of 121° C. and 15 minutes, and an incubator was used at 37° C. with lighting of 169 μmol m^−2 s^−1 for a culture time of 14˜16 hours. A UV-visible spectrophotometer was used at 600 nm. PCR was performed under conditions of at 94° C. for 4 minutes, and 25 cycles (at 94° C. for 30 seconds, at 56˜60° C. for 30 seconds and at 72° C. for 3 minutes), at 72° C. for 5 minutes and at 4° C. for 5 minutes. Respective herbicides were prepared at a concentration of 200 mM in DMSO, and stored at −20° C. Before use, the herbicides were diluted and added to LB broth medium (containing […]).
(§4) Saturated cells were inoculated in 3 ml of LB liquid medium containing chloramphenicol, and then cultured at 37° C., 200 rpm for 5 hours. Density of the cultured cells was measured at 600 nm, and the transformants were diluted with LB liquid medium to have the same absorbance (OD600) per 1 ml thereof (OD600=0.5). Agar was added to LB liquid medium at a concentration of 1%, and then autoclaved. Chloramphenicol (34 μg/ml) and herbicide were added and mixed. Cells diluted equally was diluted at a density of 10^0, 10^−1, 10^−2, 10^−3, 10^−4, and 10^−5. Each 10 μl of the cells was dropped on 1% agar, LB solid medium, and cultured in a 37° C. incubator for 14˜16 hours (light condition: 169 μmol m^−2s^−1).
(§5) To prepare BT3(ΔPPO) competent cells, BT3(ΔPPO) strain was added to 5 ml of LB broth containing 50 μg/ml kanamycin and 20 μg/ml hematin, and cultured in a 37° C. shaking incubator for 12 hours in the dark. Thereafter, 5 ml of the culture was added to 100 ml of LB broth containing 20[…] μg/ml hematin, and cultured in a 37° C. shaking incubator in the dark until OD600 reached 0.5. BT3(ΔPPO) competent cells were prepared from the cultured E. coli using CaCl2 according to protocols for preparing competent cells. Next, to transform the BT3(ΔPPO) strain with the respective vectors harboring the CyPPO2 variant, CyPPO4 variant and CyPPO8 variant, 5 μl of the vector was added to 100 μl of BT3(ΔPPO) competent cells, and the mixture was mixed well, allowed to react on ice for 20 minutes, and then left at 42° C. for 40 seconds. After stabilization on ice for 2 minutes, 1 ml of LB broth was added to BT3(ΔPPO), and cultured at 37° C. for 1 hour with shaking. The cells cultured in the medium were collected according to the type of the gene insert, and then spread on LB solid medium containing chloramphenicol (34 μg/ml), and cultured at 37° C. for 12 hours or longer. Thereafter, single colonies thereof were cultured in LB liquid medium. […]

CyPPO4 variant = format: cell-based, Lyngbya sp. PCC 8106
From the text: as §1, §2, §3, §4, §5

CyPPO8 variant = format: cell-based, Halothece sp. PCC 7418
From the text: as §1, §2, §3, §4, §5

Measured: concentration at which growth inhibition was hardly observed

CC(C)=C1OC(=O)N(c2cc(OC3CCCC3)c(Cl)cc2F)C1=O [Pentoxazone]
25 µM: all assays above

C#CCN(C)c1c(C#N)cnn1-c1nn2c(c1Cl)CCCC2 [Pyraclonil]
25 µM: all assays above

CC(C)N(C)S(=O)(=O)NC(=O)c1cc(-n2c(=O)cc(C(F)(F)F)n(C)c2=O)c(F)cc1Cl [Saflufenacil]
25 µM: all assays above

C#CCN1C(=O)COc2cc(F)c(N3C(=O)C4=C(CCCC4)C3=O)cc21 [Flumioxazin]
25 µM: all assays above

CCOc1cc(Oc2ccc(C(F)(F)F)cc2Cl)ccc1[N+](=O)[O-] [Oxyfluorfen]
25 µM: all assays above

COC(=O)CCNC(=O)C(C)Sc1cc(-n2c(=O)cc(C(F)(F)F)n(C)c2=O)c(F)cc1Cl (stereo not drawn) [Tiafenacil]
25 µM: all assays above

Cc1nn(-c2cc(NS(C)(=O)=O)c(Cl)cc2Cl)c(=O)n1C(F)F [Sulfentrazone]
25 µM: all assays above

CCOC(=O)COc1cc(-c2nn(C)c(OC(F)F)c2Cl)c(F)cc1Cl [Pyraflufen-ethyl]
25 µM: all assays above

C=CCOC(=O)C(C)(C)OC(=O)c1cc(-n2c(=O)cc(C(F)(F)F)n(C)c2=O)ccc1Cl [Butafenacil]
25 µM: all assays above

CC(C)Oc1cc(-n2nc(C(C)(C)C)oc2=O)c(Cl)cc1Cl [Oxadiazon]
25 µM: all assays above

O=C(O)c1cc(Oc2ccc(C(F)(F)F)cc2Cl)ccc1[N+](=O)[O-] [Acifluorfen]
25 µM: all assays above

CS(=O)(=O)NC(=O)c1cc(Oc2ccc(C(F)(F)F)cc2Cl)ccc1[N+](=O)[O-] [Fomesafen]
25 µM: all assays above

COC(=O)CSc1cc(/N=c2\sc(=O)n3n2CCCC3)c(F)cc1Cl [Fluthiacet-methyl]
25 µM: all assays above
